Measured values from US11980600B2, “Diagnostic assay and treatment for preeclampsia” (MIRZYME THERAPEUTICS LIMITED, priority 2015, dated 2024).

Assays:
[1] = system: Ad-sFlt-1 injected Hmox1−/− mice; test: Co-treatment rescue study of renal injury in non-pregnant Hmox1-/- mice injected with Ad-sFlt-1; format: in vivo; conditions: for proteinuria (24 h urinary albumin:creatinine ratio) / urinary KIM-1 levels: high sFlt-1; for renal glomerulosclerosis and mesangiolysis (glomerular histology): high sFlt-1, nor-NOHA daily i.p., L-arginine 25 g/L in drinking water
Method: Non-pregnant studies were carried out twelve-week-old Hmox1^−/− mice and Hmox1^+/+ mice. Animals were injected with 1×10^9 PFU of Ad-sFlt-1 or Ad-CMV (control) adenovirus by injection into the tail vein. Nine days after adenovirus administration, mice were individually placed in metabolic cages for 24 hours. Body weight, food and water intake, and urine volume were measured. Following urine measurements, blood sampling was undertaken on day 10, the animals were euthanized, and their kidneys and livers were collected for further analysis. Co-treatment rescue studies using arginase inhibitor and/or L-arginine supplementation were also undertaken in non-pregnant Hmox1^−/− mice and Hmox1^+/+ animals. Mice were injected intraperitoneally with nor-NOHA (Bachem, Bubendorf, Switzerland) daily. L-arginine (Sigma-Aldrich, St. Louis, MO) was given to the animals by supplementing the drinking water with 25 g/L one week before the Ad-sFlt-1 adenovirus injection and until the end of the study.
(§1) Urinary albumin was determined using Albuwell-M kits (Exocell Inc, Philadelphia, PA). Enzyme-linked immunosorbent assay kits for human and murine sFlt-1, KIM-1, and PIGF were obtained from R&D Systems and performed according to the manufacturer's specifications.
Human and murine placental tissues were prepared for immunohistochemistry as previously described. Immunohistochemistry was performed by using antibodies to Arginase-1, Ass1, Asl, and 3-nitrotyrosine. The following antibodies were used: (1) anti-arginase-1 antibody (1:50, Genetex); (2) anti-argininosuccinate synthase (1:100), Abcam); (3) anti-argininosuccinate lyase (1:100, Abcam) and (4) anti-3-Nitrotyrosine (1:100 dilution, Abcam). Sections from mouse kidneys or human placental biopsies were rehydrated, blocked with the use of normal serum, and incubated with primary antibody for 2 hours at room temperature. Visualization was performed by using a Vectastain ABC kit, with DAB. Slides were counterstained with hematoxylin. The staining was analysed by using a Nikon inverted microscope and Image Pro-Plus image analysis software.

[2] = system: Ad-sFlt-1 injected Hmox1+/− pregnant mice; test: Rescue of preeclampsia phenotype in timed pregnant Hmox1+/- mice injected with Ad-sFlt-1; format: in vivo; conditions: for signs of preeclampsia overall: Ad-sFlt-1, agent given alone; for average fetal weight / fetal resorption rate / mean arterial blood pressure (MAP) / hypertension / proteinuria (24 h urinary albumin:creatinine ratio): Ad-sFlt-1, day 18 of gestation
Method: Pregnant mice studies were carried out ten to twelve-week-old Hmox1^+/− mice and Hmox1^+/+ mice or wild-type C57/B16 mice. The first day of pregnancy (E0.5) was defined by the presence of a vaginal plug the following morning. On E10.5 (second trimester) pregnant mice were injected with 1×10^9 PFU of Ad-sFlt-1 or Ad-CMV (control) adenovirus by injection into the tail vein. For RUPP study, on day 13 of gestation, time pregnant C57/Bl6 mice were anesthetized. An incision was made down the midline of the body and the abdominal aorta was isolated. The vessel was then restricted with 7.0 suture tied around a blunt needle (approximate diameter of 1 mm^2) placed on the aorta. The needle was then removed. Right ovarian artery was restricted with 7.0 suture. The incisions were closed and the mice were allowed to recover for five days. For the low-dose sFlt-1 experiment, 1×10^8 PFU of adenovirus expressing sFlt-1 was used. On E17.5 mice were individually placed in metabolic cages for 24 hours and arterial blood pressure was measured at E18.5 as described previously (Wang et al. 2013). In brief, mice were anesthetized by using a ketamine/xylazine cocktail, and the carotid artery was isolated and cannulated with a Millar 1-French Mikro-Tip pressure catheter connected to a pressure transducer (ADInstruments Ltd, Oxford, UK). After 30 minutes of blood pressure stabilization, arterial pressure was recorded and averaged over an additional 10-minute period. Following measurements, blood sampling was undertaken, the animals were euthanized, and their kidneys, livers, and placentas were collected. The live fetuses and placentas were counted and weighed. All experimentation was conducted in accordance with the United Kingdom Animals (Scientific Procedures) Act, 1986 with the use of procedures approved by the University Ethical Review Committee.
as §1

Row | Structure (SMILES) | proteinuria (24 h urinary albumin:creatinine ratio) [1] | urinary KIM-1 levels [1] | renal glomerulosclerosis and mesangiolysis (glomerular histology) [1] | signs of preeclampsia overall [2] | average fetal weight [2] | fetal resorption rate [2] | mean arterial blood pressure (MAP) / hypertension [2] | proteinuria (24 h urinary albumin:creatinine ratio) [2]
1 | N=C(N)NCCC[C@H](N)C(=O)O [L-arginine] | improvements were absent | improvements were absent | improvements were absent | failed to abolish all signs of preeclampsia | no significant improvement | no significant improvement | significantly reduced | no significant improvements
2 | N=C(NO)NCC[C@H](N)C(=O)O [nor-NOHA, N-w-hydroxy-L-nor-arginine] | improvements were absent | improvements were absent | improvements were absent | failed to abolish all signs of preeclampsia | no significant effect | reduced | no significant effect | no significant improvements
